Experimental data as given in patent EP1018866B1, “COMPOSITIONS AND METHODS FOR THE PRESERVATION OF LIVING TISSUES” (Biostore New Zealand Limited, priority 1996, dated 1997).

System: mouse embryos
Assay: Storage of mouse embryos in Solution 70/30 at 4 °C with or without sodium butyrate pretreatment
Type: cell-based
Protocol: Mouse embryos were incubated with either sodium butyrate or a Class II solute at either room temperature, 30 °C or 4 °C prior to storage in Solution 70/30 for up to five days at 4 °C. […] Sodium butyrate replaced sodium chloride at the same concentration in PBS.

In the case of `CCCC(=O)[O-].[Na+]` [sodium butyrate], the embryos hatched (pretreatment with higher concentrations of sodium butyrate, 5 days of storage in Solution 70/30) is reported as “up to 70%” and the embryos to hatch (pretreatment with sodium butyrate, three days of storage in Solution 70/30 at 4 °C) is reported as “up to 80%”.
